Measured values: patent publication US9481673B2, “6-alkynyl-pyridine derivatives” (Boehringer Ingelheim International GmbH, priority 2014, dated 2016)
≈ marks a conversion by molar mass, not a printed value.

Assays:
[1] = target: P450 2C19 (Homo sapiens (Human), UniProt P33261); assay: Cytochrome P450 isoenzyme inhibition assay, hydroxylation of Mephenytoin; type: in vitro ADME; conditions: (S)-isomers; human liver microsomes, 37° C.
[2] = target: P450 2C9 (Homo sapiens (Human), UniProt P11712); assay: Cytochrome P450 isoenzyme inhibition assay, hydroxylation of Diclofenac; type: in vitro ADME; conditions: (S)-isomers; human liver microsomes, 37° C.
[3] = target: cIAP1 BIR3 (Homo sapiens (Human), UniProt Q13490); assay: cIAP1 BIR3 binding assay (DELFIA), BIR3-SMAC peptide interaction; conditions: (S)-isomers; BIR3 domain 10 nM, SMAC peptide 10 nM; read-out: cIAP1 BIR-3 IC50
[4] = target: P450 3A4 (Homo sapiens (Human), UniProt P08684); assay: Cytochrome P450 isoenzyme inhibition assay, hydroxylation of Midazolam; type: in vitro ADME; conditions: (S)-isomers; human liver microsomes, 37° C.
[5] = Solubility measurement (DMSO solution precipitation method); type: physicochemical; conditions: aqueous buffer, kinetic from dmso stock; (S)-isomers; McIlvaine buffer pH 6.8, 24 h shaking at ambient temperature; read-out: Sol pH 6.8
[6] = target: P450 2C8 (Homo sapiens (Human), UniProt P10632); assay: Cytochrome P450 isoenzyme inhibition assay, deethylation of Amodiaquine; type: in vitro ADME; conditions: (S)-isomers; human liver microsomes, 37° C.

Row | SMILES | IC50 [1] | IC50 [2] | IC50 [3] | IC50 [4] | solubility kinetic at 24 h [5] | IC50 [6]
1 | CN[C@@H](C)C(=O)Nc1ccc(-c2c(-c3ccc(C)nc3)nc3cc(C)ccn23)c(C#Cc2ccc3c(C)nccc3c2)n1 [(S)-6, (2S)-N-{5-[7-methyl-2-(6-methylpyridin-3-yl)imidazo[1,2-a]-pyridin-3-yl]-6-[2-(1-methylisoquinolin-6-yl)ethynyl]pyridin-2-yl}-2-(methylamino)-propanamide] | > 50 µM | > 50 µM | 0.001 µM | > 50 µM | 1 µg/mL (≈ 1.77 µM) | 25 µM
2 | CN[C@@H](C)C(=O)Nc1ccc(-c2c(-c3cnc(C)nc3)nc3cc(C)ccn23)c(C#Cc2ccc3c(C)nccc3c2)n1 [(S)-7, (2S)-N-{5-[7-methyl-2-(2-methylpyrimidin-5-yl)imidazo[1,2-a]-pyridin-3-yl]-6-[2-(1-methylisoquinolin-6-yl)ethynyl]pyridin-2-yl}-2-(methylamino)-propanamide] | > 50 µM | > 50 µM | 0.001 µM | > 50 µM | < 1 µg/mL | > 50 µM
3 | CN[C@@H](C)C(=O)Nc1ccc(-c2c(-c3ccnc(OC)c3)nc3cc(C)ccn23)c(C#Cc2ccc3c(C)nccc3c2)n1 [(S)-8, (2S)-N-{5-[2-(2-methoxypyridin-4-yl)-7-methylimidazo[1,2-a]pyridin-3-yl]-6-[2-(1-methylisoquinolin-6-yl)ethynyl]pyridin-2-yl}-2-(methyl-amino)propanamide] | 38 µM | > 50 µM | 0.001 µM | > 50 µM | < 1 µg/mL | 1.6 µM
4 | CN[C@@H](C)C(=O)Nc1ccc(-c2c(-c3ccc(OC)nc3)nc3cc(C)ccn23)c(C#Cc2ccc3c(C)nccc3c2)n1 [(S)-9, (2S)-N-{5-[2-(6-methoxypyridin-3-yl)-7-methylimidazo[1,2-a]pyridin-3-yl]-6-[2-(1-methylisoquinolin-6-yl)ethynyl]pyridin-2-yl}-2-(methyl-amino)propanamide] | > 50 µM | > 50 µM | 0.001 µM | > 50 µM | 2 µg/mL (≈ 3.44 µM) | 15 µM
5 | CN[C@@H](C)C(=O)Nc1ccc(-c2c(-c3cccnc3OC)nc3cc(C)ccn23)c(C#Cc2ccc3c(ccc(=O)n3C)c2)n1 [(S)-10, (2S)-N-{5-[2-(2-methoxypyridin-3-yl)-7-methylimidazo[1,2-a]pyridin-3-yl]-6-[2-(1-methyl-2-oxo-1,2-dihydroquinolin-6-yl)-ethynyl]pyridin-2-yl}-2-(methylamino)-propanamide] | > 50 µM | – | 0.001 µM | > 50 µM | 35 µg/mL (≈ 58.6 µM) | 9.3 µM
6 | CN[C@@H](C)C(=O)Nc1ccc(-c2c(-c3cnc(C)nc3)nc3cc(C)ccn23)c(C#Cc2ccc3c(ccc(=O)n3C)c2)n1 [(S)-12, (2S)-N-{5-[7-methyl-2-(2-methylpyrimidin-5-yl)imidazo[1,2-a]-pyridin-3-yl]-6-[2-(1-methyl-2-oxo-1,2-dihydroquinolin-6-yl)-ethynyl]pyridin-2-yl}-2-(methylamino)-propanamide] | > 50 µM | > 50 µM | 0.002 µM | > 50 µM | < 1 µg/mL | > 50 µM
7 | CN[C@@H](C)C(=O)Nc1ccc(-c2c(-c3ccnc(OC)c3)nc3cc(C)ccn23)c(C#Cc2ccc3c(ccc(=O)n3C)c2)n1 [(S)-13, (2S)-N-{5-[2-(2-methoxypyridin-4-yl)-7-methylimidazo[1,2-a]pyridin-3-yl]-6-[2-(1-methyl-2-oxo-1,2-dihydroquinolin-6-yl)-ethynyl]pyridin-2-yl}-2-(methylamino)-propanamide] | – | > 50 µM | 0.001 µM | > 50 µM | < 1 µg/mL | 4.5 µM
8 | CN[C@@H](C)C(=O)Nc1ccc(-c2c(-c3ccc(OC)nc3)nc3cc(C)ccn23)c(C#Cc2ccc3c(ccc(=O)n3C)c2)n1 [(S)-14, (2S)-N-{5-[2-(6-methoxypyridin-3-yl)-7-methylimidazo[1,2-a]pyridin-3-yl]-6-[2-(1-methyl-2-oxo-1,2-dihydroquinolin-6-yl)-ethynyl]pyridin-2-yl}-2-(methylamino)-propanamide] | > 50 µM | > 50 µM | 0.001 µM | > 50 µM | < 1 µg/mL | > 50 µM
9 | CN[C@@H](C)C(=O)Nc1ccc(-c2c(-c3cccnc3OC)nc3ccccn23)c(C#Cc2ccc3c(C)nccc3c2)n1 [(S)-16, (2S)-N-{5-[2-(2-methoxypyridin-3-yl)imidazo[1,2-a]-pyridin-3-yl]-6-[2-(1-methylisoquinolin-6-yl)ethynyl]pyridin-2-yl}-2-(methylamino)-propanamide] | > 50 µM | 21 µM | – | > 50 µM | 17 µg/mL (≈ 29.9 µM) | 3.4 µM

Continued, values first:

Row | IC50 [1] | IC50 [2] | IC50 [3] | IC50 [4] | solubility kinetic at 24 h [5] | IC50 [6] | SMILES
10 | > 50 µM | 38 µM | 0.001 µM | > 50 µM | 35 µg/mL (≈ 60.2 µM) | 11 µM | CN[C@@H](C)C(=O)Nc1ccc(-c2c(-c3cccnc3OC)nc3cc(C)ccn23)c(C#Cc2ccc3c(C)nccc3c2)n1 [(S)-1, (2S)-N-{5-[2-(2-methoxypyridin-3-yl)-7-methylimidazo[1,2-a]pyridin-3-yl]-6-[2-(1-methylisoquinolin-6-yl)ethynyl]pyridin-2-yl}-2-(methyl-amino)propanamide]
11 | > 50 µM | > 50 µM | 0.001 µM | > 50 µM | 1 µg/mL (≈ 1.8 µM) | 14 µM | CN[C@@H](C)C(=O)Nc1ccc(-c2c(-c3cnn(C)c3)nc3cc(C)ccn23)c(C#Cc2ccc3c(C)nccc3c2)n1 [(S)-3, (2S)-N-{5-[7-methyl-2-(1-methyl-1H-pyrazol-4-yl)-imidazo[1,2-a]pyridin-3-yl]-6-[2-(1-methyl-isoquinolin-6-yl)-ethynyl]pyridin-2-yl}-2-(methylamino)-propanamide]
12 | 36 µM | 27 µM | 0.001 µM | > 50 µM | 39 µg/mL (≈ 70.3 µM) | 9.8 µM | CN[C@@H](C)C(=O)Nc1ccc(-c2c(-c3cncn3C)nc3cc(C)ccn23)c(C#Cc2ccc3c(C)nccc3c2)n1 [(S)-4, (2S)-N-{5-[7-methyl-2-(1-methyl-1H-imidazol-5-yl)-imidazo[1,2-a]pyridin-3-yl]-6-[2-(1-methyl-isoquinolin-6-yl)-ethynyl]pyridin-2-yl}-2-(methylamino)-propanamide]
13 | > 50 µM | > 50 µM | 0.002 µM | > 50 µM | < 1 µg/mL | 1.3 µM | CN[C@@H](C)C(=O)Nc1ccc(-c2c(-c3cccnc3C)nc3cc(C)ccn23)c(C#Cc2ccc3c(C)nccc3c2)n1 [(S)-5, (2S)-N-{5-[7-methyl-2-(2-methylpyridin-3-yl)imidazo[1,2-a]-pyridin-3-yl]-6-[2-(1-methylisoquinolin-6-yl)ethynyl]pyridin-2-yl}-2-(methylamino)-propanamide]
14 | 14 µM | > 50 µM | 0.001 µM | 46 µM | – | 15 µM | CN[C@@H](C)C(=O)Nc1ccc(-c2c(-c3ccnc(C)c3)nc3cc(C)ccn23)c(C#Cc2ccccc2)n1 [(S)-11, (2S)-N-{5-[7-methyl-2-(2-methylpyridin-4-yl)imidazo[1,2-a]-pyridin-3-yl]-6-(2-phenylethynyl)pyridin-2-yl}-2-(methyl-amino)propanamide]
